From ChEMBL document CHEMBL1143893, “Novel nitroheterocyclic hypoxic markers for solid tumor: synthesis and biological evaluation” (Bioorg Med Chem, 2008)

Assay: Drug level in Chinese hamster V79 379A cells at 0.1 mM after 3.5 hrs by fluorescence microplate reader relative to control
Format: ADME, cell-based, Cricetulus griseus
Settings: 100 µM

Fold change	SMILES
9	CN1CCN(c2ccc3c4c(cccc24)-c2nc4cc([N+](=O)[O-])ccc4nc2-3)CC1
11	CN(C)CCNc1ccc2c3c(cccc13)-c1nc3cc([N+](=O)[O-])ccc3nc1-2
6	O=[N+]([O-])c1ccc2nc3c(nc2c1)-c1cccc2c([N+](=O)[O-])ccc-3c12
